Reference: patent US6969708B1, “Process for the preparation of a high purity composition comprising (7α, 17α)- 17-hydroxy- 7-methyl- 19-nor-17-pregn-5(10)-en-20-yn-3-one” (Akzo Nobel N.V., priority 1998, dated 2005)

Experiment: Stress test at 45° C. of bulk Tibolone crystals (increase of Org OM38)
Assay type: physicochemical
Description: A solution of (7α, 17α)-3,3-dimethoxy-17-hydroxy-7-methyl-19-norpregn-5(10)-en20-yn-3-one (15 kg) in a mixture of pyridine (630 ml) and ethanol (315 liters) was mixed with a solution of oxalic acid (750 gr) in water (90 liters) and the mixture was stirred for 2 hours at approximately 30° C. The solution was poured out in a mixture of pyridine (1350 ml) and water (300 liters) and the resulting suspension was filtered. The crystals were washed with a mixture of water and pyridine and dried under vacuum at 40° C. to give (7α, 17α)-17-hydroxy-7-methyl-19-norpregn-5(10)-en-20-yn-3-one containing 0.6% of the corresponding (7α, 17α)-17-hydroxy-7-methyl-19-norpregn-4-en-20-yn-3-one as indicated by HPLC analysis; a stress test at 45° C. (duration 1 month) indicated a 0.4% increase of the latter compound.
A solution of (7α, 17α)-3,3-dimethoxy-17-hydroxy-7-methyl-19-norpregn-5(10)-en-20-yn-3-one (15 kg) in a mixture of pyridine (630 ml) and ethanol (315 liters) was mixed with a solution of oxalic acid (375 gr) in water (90 liters) and the mixture was stirred for 3 hours at approximately 30° C. The solution was poured out in a mixture of pyridine (1350 ml) and water (300 liters) and the resulting suspension is filtered. The crystals are washed with a mixture of water and pyridine and allowed to age for 3–6 days at room temperature. Subsequently, the crystals were dried under vacuum at 40° C. to give (7α, 17α)-17-hydroxy-7-methyl-19-norpregn-5(10)-en-20-yn-3-one containing≦0.1% of the corresponding (7α, 17α)-17-hydroxy-7-methyl-19-norpregn-4-en-20-yn-3-one as indicated by HPLC analysis; a stress test at 45° C. (duration 1 week) indicated a<0.1% increase of the latter compound.
The preparation as described in example 2 was repeated. (7α, 17α)-17-hydroxy-7-methyl-19-norpregn-5(10)-en-20-yn-3-one was obtained which contained 0.2% of the corresponding. (7α, 17α)-17-hydroxy-7-methyl-19-norpregn-4-en-20-yn-3-one as indicated by HPLC analysis; a stress test at 45° C. (duration 1 week) indicated a 0.1% increase of the latter compound.

SMILES: C#C[C@]1(O)CCC2C3C(CCC21C)C1=C(CC(=O)CC1)C[C@H]3C (single isomer, unassigned) [Example 2, (7α, 17α)-17-hydroxy-7-methyl-19-norpregn-5(10)-en-20-yn-3-one]
- increase of (7α, 17α)-17-hydroxy-7-methyl-19-norpregn-4-en-20-yn-3-one in stress test (duration 1 week): < 0.1%

SMILES: C#C[C@]1(O)CCC2C3C(CCC21C)C1=C(CC(=O)CC1)C[C@H]3C (single isomer, unassigned) [Example 3, (7α, 17α)-17-hydroxy-7-methyl-19-norpregn-5(10)-en-20-yn-3-one]
- increase of (7α, 17α)-17-hydroxy-7-methyl-19-norpregn-4-en-20-yn-3-one in stress test (duration 1 week): 0.1%

SMILES: C#C[C@]1(O)CCC2C3C(CCC21C)C1=C(CC(=O)CC1)C[C@H]3C (stereo partly drawn) [Example 1, (7α, 17α)-17-hydroxy-7-methyl-19-norpregn-5(10)-en-20-yn-3-one]
- increase of (7α, 17α)-17-hydroxy-7-methyl-19-norpregn-4-en-20-yn-3-one in stress test (duration 1 month): 0.4%
